We go through 3 compounds from patent EP0260057A2, “2-Oxo-4-carboxy-pyrimidines” (THE UNIVERSITY OF MELBOURNE, priority 1986, dated 1988).

The target in the test is T1, dihydroorotase (Mesocricetus auratus, UniProt P08955).
T1 construct: purified by an established procedure from a mutant hamster cell line which overproduces the target enzyme; endogenous in cells; host or cells: mutant hamster cell line overproducing the enzyme more than 100-fold; enzyme purified from these cells
In words: Dihydroorotase inhibition assay (conversion of L-[14C]dihydroorotate to N-[14C]carbamyl-L-aspartate). It is filed as biochemical, hamster. How it is done:
Dihydroorotase has been purified by an established procedure from a mutant hamster cell line which overproduces the target enzyme by more than 100-fold (P.F. Coleman, D.P. Suttle and G.R. Stark (1978) in "Methods in Enzymology" (P.A. Hoffee and M.E. Jones eds.) Vol. 51, pp 121-134, Academic Press, New York; P.F. Coleman D.P. Suttle and G.R. Stark (1977) J. Biol. Chem. 252, 6379-6385). Purified dihydroorotase was stored at -70°C in a solution containing 30% (v/v) dimethyl sulphoxide, 5% (v/v) glycerol, 50 mM KCl, 4 mM L-glutamine, 4 mM L-aspartate, 0.1 mM EDTA and 1 mM dithiothreitol.
Dihydroorotase catalyses the conversion of N-carbamyl-L-aspartate to L-dihydroorotate. To assess the effects of a potential inhibitor of this target enzyme, the rate of conversion of L-dihydroorotate to N-carbamyl-L-aspartate catalysed by dihydroorotase was measured in the presence of a range of concentrations of the inhibitor. For a tight-binding inhibitor like TDHO, extremely low concentrations are sufficient to abolish all dihydroorotase activity. To illustrate the inhibitory potency of TDHO, results of the following experiment are presented. Assay mixtures for dihydroorotase activity contained in a total volume of 25 ul, 50 mM K.Hepes buffer pH 7.4, 5% (v/v) glycerol 12.5 µM L-[¹⁴C]dihydroorotate (specific radioactivity 47.1 Ci/mol), and TDHO concentrations ranging from 0 - 1.50 µM containing a 30-fold molar excess of ZnCl₂. Catalysis was initiated by addition of 39 ng of dihydroorotase. The rate of conversion of L-[¹⁴C]dihydroorotate to N-[¹⁴C]carbamyl-L-aspartate was measured in the presence of different concentrations of TDHO, using established procedures (R.I. Christopherson, T. Matsuura and M.E. Jones (1978) Analytical Biochemistry 100, 184-187). The assay mixture lacking TDHO had the fastest reaction velocity while the lowest velocity measured was in the presence of the highest concentration of TDHO. The results data are plotted as the reciprocal of reaction velocity (l/v) versus the concentration of TDHO from which a value for the dissociation constant (Ki value) for TDHO from the enzyme-TDHO complex can be obtained.
Assay mixtures for dihydroorotase activity contained in a total volume of 25 µl:50 mM K.Hepes buffer pH 7.4, 5% (v/v) glycerol, 12.5 µM L-[¹⁴C]dihydroorotate (specific radioactivity 47.1 Ci/mol), and HDDP concentrations ranging from 0 - 5 µM. Catalysis was initiated by addition of 39 ng of dihydroorotase. The rate of conversion of L-[¹⁴C]dihydroorotate to N-[¹⁴C]carbamyl-L-aspartate was measured in the presence of different concentrations of HDDP, in a similar manner to Test 3.

T1 sequence (P08955 whole entry): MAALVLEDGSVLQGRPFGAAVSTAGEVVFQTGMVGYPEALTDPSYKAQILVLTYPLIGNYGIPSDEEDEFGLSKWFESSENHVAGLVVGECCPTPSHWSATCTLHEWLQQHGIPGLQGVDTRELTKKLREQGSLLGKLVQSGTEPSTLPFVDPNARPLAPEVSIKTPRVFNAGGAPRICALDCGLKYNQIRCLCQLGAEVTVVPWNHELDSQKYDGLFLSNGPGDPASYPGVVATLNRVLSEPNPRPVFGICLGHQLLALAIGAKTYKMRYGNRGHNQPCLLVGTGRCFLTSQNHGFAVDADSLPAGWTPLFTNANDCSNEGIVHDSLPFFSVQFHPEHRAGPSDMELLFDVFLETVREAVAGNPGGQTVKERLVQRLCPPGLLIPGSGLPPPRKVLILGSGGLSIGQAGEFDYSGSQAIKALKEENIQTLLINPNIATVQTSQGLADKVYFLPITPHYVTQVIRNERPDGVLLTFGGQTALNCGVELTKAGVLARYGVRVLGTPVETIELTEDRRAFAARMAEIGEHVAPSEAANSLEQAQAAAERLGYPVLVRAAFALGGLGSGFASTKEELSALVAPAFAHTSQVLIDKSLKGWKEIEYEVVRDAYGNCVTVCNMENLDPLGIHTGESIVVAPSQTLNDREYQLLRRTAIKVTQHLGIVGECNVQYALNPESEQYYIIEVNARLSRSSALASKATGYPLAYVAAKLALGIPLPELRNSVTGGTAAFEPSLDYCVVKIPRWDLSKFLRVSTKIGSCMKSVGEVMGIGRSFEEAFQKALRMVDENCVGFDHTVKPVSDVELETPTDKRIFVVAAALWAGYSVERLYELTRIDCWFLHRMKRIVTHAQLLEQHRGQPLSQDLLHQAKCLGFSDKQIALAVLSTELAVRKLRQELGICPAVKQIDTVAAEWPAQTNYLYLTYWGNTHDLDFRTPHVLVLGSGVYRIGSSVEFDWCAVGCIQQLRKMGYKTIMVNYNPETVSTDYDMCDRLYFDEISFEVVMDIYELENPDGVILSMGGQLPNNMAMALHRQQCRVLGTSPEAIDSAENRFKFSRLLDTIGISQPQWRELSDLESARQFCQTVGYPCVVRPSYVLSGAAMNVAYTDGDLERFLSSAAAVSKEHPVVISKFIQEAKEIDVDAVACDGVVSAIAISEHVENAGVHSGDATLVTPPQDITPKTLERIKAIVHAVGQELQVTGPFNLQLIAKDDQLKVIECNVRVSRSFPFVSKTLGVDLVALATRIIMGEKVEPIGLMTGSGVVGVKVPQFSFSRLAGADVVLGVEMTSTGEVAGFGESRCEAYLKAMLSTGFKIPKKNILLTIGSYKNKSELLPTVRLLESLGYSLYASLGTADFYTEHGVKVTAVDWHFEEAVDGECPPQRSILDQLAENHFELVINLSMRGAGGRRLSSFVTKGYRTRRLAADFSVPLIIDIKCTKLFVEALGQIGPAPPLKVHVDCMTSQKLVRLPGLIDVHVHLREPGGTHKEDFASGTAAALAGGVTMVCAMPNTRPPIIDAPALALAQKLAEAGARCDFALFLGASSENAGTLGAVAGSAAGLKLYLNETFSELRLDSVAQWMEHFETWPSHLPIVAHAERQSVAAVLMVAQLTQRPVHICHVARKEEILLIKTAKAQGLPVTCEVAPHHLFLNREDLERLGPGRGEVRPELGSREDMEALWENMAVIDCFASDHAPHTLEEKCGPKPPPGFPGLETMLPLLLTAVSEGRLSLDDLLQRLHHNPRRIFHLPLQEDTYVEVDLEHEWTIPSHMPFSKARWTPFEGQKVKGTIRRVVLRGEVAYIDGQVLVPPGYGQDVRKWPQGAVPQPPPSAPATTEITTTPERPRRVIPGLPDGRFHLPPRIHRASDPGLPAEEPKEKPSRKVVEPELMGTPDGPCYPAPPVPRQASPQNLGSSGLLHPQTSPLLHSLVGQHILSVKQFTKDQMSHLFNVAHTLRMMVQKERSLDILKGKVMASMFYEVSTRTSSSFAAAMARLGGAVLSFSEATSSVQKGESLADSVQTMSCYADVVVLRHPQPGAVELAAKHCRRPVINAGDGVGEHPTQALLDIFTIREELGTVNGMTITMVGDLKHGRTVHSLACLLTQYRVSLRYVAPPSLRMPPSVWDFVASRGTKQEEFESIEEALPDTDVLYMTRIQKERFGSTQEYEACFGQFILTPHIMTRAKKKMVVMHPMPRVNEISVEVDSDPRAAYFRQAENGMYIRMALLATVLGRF

Take `O=C1NC(C(=O)O)=CC(C(=O)O)N1` (stereo not shown) [HDDP, 2-oxo-1,2,3,6-tetrahydropyrimidine-4,6-dicarboxylic acid]: under “HDDP 0 - 5 µM, pH 7.4, 12.5 µM L-[¹⁴C]dihydroorotate, no ZnCl₂ mentioned”, the affinity, expressed as Ki, was 0.48 µM.

As for `O=C1NC(=S)CC(C(=O)O)N1` (stereo not shown) [TDHO, Hexahydro-2-oxo-6-thioxo-4-pyrimidinecarboxylic acid], the Ki reads like this: (TDHO containing a 30-fold molar excess of ZnCl₂, pH 7.4, 12.5 µM L-[¹⁴C]dihydroorotate) 0.053 µM; (free acid of TDHO, in the absence of Zn²⁺) 4.5 µM.

With ZnCl₂ [reference compound], the inhibitory effect result (ZnCl₂ alone, at the same concentrations as in the TDHO experiment) is “moderate inhibitory effect”.

One may read the Ki as the dissociation constant of the complex between target and ligand, obtained from inhibition or displacement. A lower Ki goes with higher affinity.
